Test results as given in ChEMBL document CHEMBL5715952 (Oncotarget, 2015).
Active and inactive are the calls of the source. No cut-off for these calls is given here.

Key:
[1] = Synergistic antiproliferative activity against human ANBL-6 BR resistant cells assessed as reduction in cell viability at ED50 incubated for 72 hrs in presence of bortezomib by MTS assay; format: functional
RPMI-8226 [2] = assay: Synergistic antiproliferative activity against wild-type human RPMI-8226 cells assessed as reduction in cell viability at ED75 incubated for 72 hrs in presence of bortezomib by MTS assay; format: functional
[3] = Synergistic antiproliferative activity against human melphalan-resistant RPMI-8226 cells assessed as reduction in cell viability at ED75 incubated for 72 hrs in presence of bortezomib by MTS assay; format: functional, Melphalan-resistant RPMI-8226 cell
ANBL-6 [4] = assay: Synergistic antiproliferative activity against wild-type human ANBL-6 cells assessed as reduction in cell viability at ED75 incubated for 72 hrs in presence of bortezomib by MTS assay; format: functional
[5] = system: Bortezomib-resistant ANBL6; assay: Synergistic antiproliferative activity against human bortezomib-resistant ANBL6 cells assessed as reduction in cell viability at ED75 incubated for 72 hrs in presence of bortezomib by MTS assay; format: functional
RPMI-8226 [6] = assay: Synergistic antiproliferative activity against wild-type human RPMI-8226 cells assessed as reduction in cell viability at ED90 incubated for 72 hrs in presence of bortezomib by MTS assay; format: functional
ANBL-6 [7] = assay: Synergistic antiproliferative activity against wild-type human ANBL-6 cells assessed as reduction in cell viability at ED90 incubated for 72 hrs in presence of bortezomib by MTS assay; format: functional
ANBL-6 [8] = assay: Induction of apoptosis in wild-type human ANBL-6 cells assessed as viable at 40 nM incubated for 72 hrs by annexin V and 7-AAD staining by flow cytometry analysis (Rvb=59 %); format: functional
ANBL-6 [9] = assay: Induction of apoptosis in wild-type human ANBL-6 cells assessed as viable at 1600 nM incubated for 72 hrs by annexin V and 7-AAD staining by flow cytometry analysis (Rvb=59 %); format: functional
ANBL-6 [10] = assay: Synergistic apoptosis activity in wild-type human ANBL-6 cells assessed as viable at 1600 nM incubated for 72 hrs in the presence of BTZ by annexin V and 7-AAD staining by flow cytometry analysis (Rvb=59 %); format: functional
ANBL-6 [11] = assay: Induction of apoptosis in wild-type human ANBL-6 cells assessed as late apoptosis at 1600 nM incubated for 72 hrs by annexin V and 7-AAD staining by flow cytometry analysis (Rvb=26 %); format: functional
ANBL-6 [12] = assay: Induction of apoptosis in wild-type human ANBL-6 cells assessed as early apoptosis at 40 nM incubated for 72 hrs by annexin V and 7-AAD staining by flow cytometry analysis (Rvb=14 %); format: functional
ANBL-6 [13] = assay: Induction of apoptosis in wild-type human ANBL-6 cells assessed as early apoptosis at 1600 nM incubated for 72 hrs by annexin V and 7-AAD staining by flow cytometry analysis (Rvb=14 %); format: functional
[14] = system: Bortezomib-resistant ANBL6; assay: Induction of apoptosis in human bortezomib-resistant ANBL6 cells assessed as viable at 1600 nM incubated for 72 hrs by annexin V and 7-AAD staining by flow cytometry analysis (Rvb=80 %); format: functional
[15] = system: Bortezomib-resistant ANBL6; assay: Induction of apoptosis in human bortezomib-resistant ANBL6 cells assessed as late apoptosis at 160 nM incubated for 72 hrs by annexin V and 7-AAD staining by flow cytometry analysis (Rvb=5 %); format: functional
[16] = system: Bortezomib-resistant ANBL6; assay: Induction of apoptosis in human bortezomib-resistant ANBL6 cells assessed as late apoptosis at 1600 nM incubated for 72 hrs by annexin V and 7-AAD staining by flow cytometry analysis (Rvb=5 %); format: functional
[17] = system: Bortezomib-resistant ANBL6; assay: Synergistic apoptosis activity in human bortezomib-resistant ANBL6 cells assessed as late apoptosis at 1600 nM incubated for 72 hrs in the presence of BTZ by annexin V and 7-AAD staining by flow cytometry analysis (Rvb=5 %); format: functional
[18] = system: Bortezomib-resistant ANBL6; assay: Induction of apoptosis in human bortezomib-resistant ANBL6 cells assessed as early apoptosis at 160 nM incubated for 72 hrs by annexin V and 7-AAD staining by flow cytometry analysis (Rvb=15 %); format: functional
[19] = system: Bortezomib-resistant ANBL6; assay: Induction of apoptosis in human bortezomib-resistant ANBL6 cells assessed as early apoptosis at 1600 nM incubated for 72 hrs by annexin V and 7-AAD staining by flow cytometry analysis (Rvb=15 %); format: functional
[20] = system: Bortezomib-resistant ANBL6; assay: Synergistic apoptosis activity in human bortezomib-resistant ANBL6 cells assessed as early apoptosis at 1600 nM incubated for 72 hrs in the presence of BTZ by annexin V and 7-AAD staining by flow cytometry analysis (Rvb=15 %); format: functional
ANBL-6 [21] = assay: Synergistic apoptosis activity in wild-type human ANBL-6 cells assessed as early apoptosis at 1600 nM incubated for 48 hrs in the presence of BTZ by annexin V and 7-AAD staining by flow cytometry analysis; format: functional
ANBL-6 [22] = assay: Synergistic apoptosis activity in wild-type human ANBL-6 cells assessed as early apoptosis at 1600 nM incubated for 72 hrs in the presence of BTZ by annexin V and 7-AAD staining by flow cytometry analysis; format: functional
[23] = system: Bortezomib-resistant ANBL6; assay: Synergistic apoptosis activity in human bortezomib-resistant ANBL6 cells assessed as early apoptosis at 1600 nM incubated for 24 hrs in the presence of BTZ by annexin V and 7-AAD staining by flow cytometry analysis; format: functional
[24] = system: Bortezomib-resistant ANBL6; assay: Synergistic apoptosis activity in human bortezomib-resistant ANBL6 cells assessed as early apoptosis at 1600 nM incubated for 48 hrs in the presence of BTZ by annexin V and 7-AAD staining by flow cytometry analysis; format: functional
[25] = system: Bortezomib-resistant ANBL6; assay: Synergistic apoptosis activity in human bortezomib-resistant ANBL6 cells assessed as early apoptosis at 1600 nM incubated for 72 hrs in the presence of BTZ by annexin V and 7-AAD staining by flow cytometry analysis; format: functional
[26] = target: T1, Bromodomain and extra-terminal motif (BET) (Homo sapiens) (UniProt P25440+O60885+Q58F21+Q15059); conditions: ANBL-6, dose lower 40.0 nM, dose upper […]
[27] = target: T1, Bromodomain and extra-terminal motif (BET) (Homo sapiens); conditions: ANBL-6, dose lower 40.0 nM, dose upper […]; remark: listed apart in the source
[28] = target: T1, Bromodomain and extra-terminal motif (BET) (Homo sapiens); conditions: Bortezomib-resistant ANBL6 cell, dose lower 40.0 nM, dose upper […]
[29] = target: T1, Bromodomain and extra-terminal motif (BET) (Homo sapiens); conditions: Bortezomib-resistant ANBL6 cell, dose lower 40.0 nM, dose upper […]; remark: listed apart in the source
[30] = target: T1, Bromodomain and extra-terminal motif (BET) (Homo sapiens); conditions: ANBL-6, dose lower 40.0 nM, dose upper […]; remark: listed apart in the source
[31] = target: T1, Bromodomain and extra-terminal motif (BET) (Homo sapiens); conditions: ANBL-6, dose lower 40.0 nM, dose upper […]; remark: listed apart in the source
[32] = target: T1, Bromodomain and extra-terminal motif (BET) (Homo sapiens); conditions: Bortezomib-resistant ANBL6 cell, dose lower 40.0 nM, dose upper […]; remark: listed apart in the source

`Cc1sc2c(c1C)C(c1ccc(Cl)cc1)=N[C@@H](CC(N)=O)c1nnc(C)n1-2` showed a CI [1] of 0.718, a CI (RPMI-8226 [2]) of 1.15 and a CI [3] of 0.693. It also gave a CI (ANBL-6 [4]) of 0.692, a CI [5] of 0.494 and a CI (RPMI-8226 [6]) of 1.041. For the same compound, the CI (ANBL-6 [7]) was 0.614, the Activity (ANBL-6 [8]) was 59% and the Activity (ANBL-6 [9]) was 31%. The Activity (ANBL-6 [10]) was 6%, the Activity (ANBL-6 [11]) was 31% and the Activity (ANBL-6 [12]) was 12%. It also gave an Activity (ANBL-6 [13]) of 31%, an Activity [14] of 54% and an Activity [15] of 4%. It also gave an Activity [16] of 16%, an Activity [17] of 10% and an Activity [18] of 18%. For the same compound, the Activity [19] was 30%, the Activity [20] was 67% and the CI (ANBL-6 [21]) was 0.24. The CI (ANBL-6 [22]) was 0.44, the CI [23] was 0.99 and the CI [24] was 0.77. For the same compound, the CI [25] was 0.87, the inhibition [26] was “Active” and the inhibition [27] was “Dose-Dependent Effect”. For the same compound, the inhibition [28] was “Active”, the inhibition [29] was “Dose-Dependent Effect” and the inhibition [30] was “Active”. The inhibition [31] was “inactive” and the inhibition [32] was “inactive”.
